# In patent publication US12398154B2, “Azaquinazoline pan-KRas inhibitors” (Mirati Therapeutics, Inc., priority 2020, dated 2025):
# Where two headings read alike, the source gives them in different places.
# Tests used:
# KRas G12V [1] = target: T1, KRas G12V (Homo sapiens, UniProt P01116, G12V); assay: biochemical;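 further: KRas binding measured by TR-FRET displacement at room temperature, IC50 fitted from percent of control values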
# Method: (§2) The ability of a compound to bind to KRas was measured using a TR-FRET displacement assay. […] After a 60-minute incubation at room temperature, the reaction was measured using a BMG LABTECH CLARIO star Plus via TR-FRET. […] The POC values were fit to a 4-parameter IC50 equation and the IC50 value reported.
# pERK in ASPC1 cells = assay: Inhibition of KRas phosphorylation of ERK (Cisbio HTRF pERK assay); conditions: Homo sapiens, ASPC1, read-out: Inhibition (HTRF IC50) of KRas-mediated Phosphorylation of ERK, AsPC-1
# KRas G12R [2] = target: T2, KRas G12R (Homo sapiens, UniProt P01116, G12R); assay: biochemical;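 further: TR-FRET displacement assay of compound binding to KRas, read after one hour at room temperature, potency from a four-parameter fit of percent-of-control values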
# Method: as §2
# pERK in HCT116 cells = assay: Inhibition of KRas phosphorylation of ERK (Cisbio HTRF pERK assay); conditions: Homo sapiens, HCT-116, read-out: Inhibition (HTRF IC50) of KRas-mediated Phosphorylation of ERK, HCT116
# pERK in PSN1 cells = assay: as above; conditions: Homo sapiens, PSN1, 3 h, read-out: Inhibition (HTRF IC50) of KRas-mediated Phosphorylation of ERK, PSN1
# Method: (§3) To harvest cells from flask using 0.05% Trypsin/EDTA solution. Add 10 mL of media to stop trypsinizing. Pipette the cells into a conical bottom 50 mL centrifuge tube and centrifuge 5 min×1000 rpm. • 2. Re-suspend the cell pellet in media, take a cell count, and then adjust the cell density using fresh media. • 3. Seed 6,000 cells into cell culture plate with 50 μL media. […] Incubate cell plate overnight in a 37° C., 5% CO2 incubator. • Compound titrations • 1. Use Tecan to complete the compound addition. Compounds start from 10 uM top, 3-fold dilution, and 10 doses. The final DMSO concentration is 0.8%. Dispensed 0.2 uM Trametinib as Min control. • 2. Incubate cell plate for 3 hrs in the incubator. • Detection with cisbio pERK HTRF kit • 1. […] At the end of the compound treatment, flick-off the media. • 3. Add 35 μL of lysis buffer per well using a Multidrop Combi. Then place on a plate agitator shaking at 300 rpm at 4° C. for 40 mins. • 4. Make up the HTRF antibody buffer. For each assay plate, mix 50 μL of d2-conjugate antibody with 950 μL of detection buffer. Similarly, mix 50 μL of Cryptate antibody with 950 μL of detection buffer. Then mix the two diluted antibodies together. • 5. Dispense 3.4 μL the antibody buffer to wells of an empty assay plate. Seal the plate and centrifuge plate 30 sec×1000 rpm. • 6. At the end of the 4° C. lysis, centrifuge the lysate plates 3 mins×1500 rpm. • 7. Use the Bravo to transfer 13.6 μL of lysate from cell culture plate to assay plate.
# (§4) Then incubate assay plate for 2 hrs at room temperature. […] At the end of incubation, read plate on the Envision after centrifuging plate 30 sec× • 1000 rpm.
# pERK in MKN1 cells = assay: as above; conditions: Homo sapiens, MKN-1, 3 h, read-out: Inhibition (HTRF IC50) of KRas-mediated Phosphorylation of ERK, MKN1
# Method: as §3, §4
# pERK in H358 cells = assay: as above; conditions: Homo sapiens, NCI-H358, read-out: Inhibition (HTRF IC50) of KRas-mediated Phosphorylation of ERK, H358
# KRas G12D = KRas G12D (Homo sapiens, UniProt P01116, G12D); assay: biochemical;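 further: TR-FRET displacement binding assay on KRas, read after a one-hour incubation at room temperature, IC50 fitted from percent-of-control values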
# Method: as §2
# pERK in H727 cells = assay: Inhibition of KRas phosphorylation of ERK (Cisbio HTRF pERK assay); conditions: Homo sapiens, NCI-H727, read-out: Inhibition (HTRF IC50) of KRas-mediated Phosphorylation of ERK, H727
# pERK in A549 cells = assay: as above; conditions: Homo sapiens, A549, read-out: Inhibition (HTRF IC50) of KRas-mediated Phosphorylation of ERK, A549
# pERK in H460 cells = assay: as above; conditions: Homo sapiens, NCI-H460, read-out: Inhibition (HTRF IC50) of KRas-mediated Phosphorylation of ERK, H460
# [3] = test system: phospho-ERK in A549 (G12S) cells; assay: Inhibition of KRas-mediated phosphorylation of ERK (in-cell western); type: cell-based; conditions: Homo sapiens, 3 hours compound, phospho-ERK normalized to GAPDH
# In short: (§1)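 Following fixation in formaldehyde and permeabilization in cold methanol, ERK phosphorylated at Thr202/Tyr204 was quantified against GAPDH.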
# [4] = test system: phospho-ERK in MKN1 (WTdep) cells; assay: as above; type: cell-based; conditions: Homo sapiens, MKN-1, 3 hours compound, phospho-ERK normalized to GAPDH
# In short: as §1
# [5] = test system: phospho-ERK in HCT116 (G13D) cells; assay: as above; type: cell-based; conditions: Homo sapiens, HCT-116, 3 hours compound, phospho-ERK normalized to GAPDH
# In short: as §1
# [6] = test system: phospho-ERK in NCI-H727 (G12V) cells; assay: as above; type: cell-based; conditions: 3 hours compound, phospho-ERK normalized to GAPDH
# In short: as §1
# [7] = test system: phospho-ERK in NCI-H358 (G12C) cells; assay: as above; type: cell-based; conditions: Homo sapiens, 3 hours compound, phospho-ERK normalized to GAPDH
# In short: as §1
# [8] = test system: phospho-ERK in PSN-1 (G12R) cells; assay: as above; type: cell-based; conditions: Homo sapiens, PSN1, 3 hours compound, phospho-ERK normalized to GAPDH
# In short: as §1
# [9] = test system: phospho-ERK in NCI-H460 (Q61H) cells; assay: as above; type: cell-based; conditions: 3 hours compound, phospho-ERK normalized to GAPDH
# In short: as §1
# [10] = test system: phospho-ERK in AsPC-1 (G12D) cells; assay: as above; type: cell-based; conditions: 3 hours compound, phospho-ERK normalized to GAPDH
# In short: as §1
# KRas G12V [11] = target: T1, KRas G12V
# Method: as §2
# KRas G12R [12] = target: T2, KRas G12R
# Method: as §2
# Chain of KRas G12D (P01116 1-169 isoform P01116-2 G12D): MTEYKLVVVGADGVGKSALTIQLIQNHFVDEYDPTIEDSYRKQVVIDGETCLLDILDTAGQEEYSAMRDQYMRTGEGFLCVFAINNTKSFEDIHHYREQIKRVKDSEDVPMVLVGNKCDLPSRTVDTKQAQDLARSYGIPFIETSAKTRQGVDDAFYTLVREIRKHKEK
# T1 sequence (P01116 1-169 isoform P01116-2 G12V): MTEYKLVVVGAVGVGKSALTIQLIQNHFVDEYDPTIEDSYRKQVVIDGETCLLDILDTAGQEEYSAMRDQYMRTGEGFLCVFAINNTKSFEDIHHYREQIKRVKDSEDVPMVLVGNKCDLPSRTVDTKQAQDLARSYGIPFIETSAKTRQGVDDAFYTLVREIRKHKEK
# T2 sequence (P01116 1-169 isoform P01116-2 G12R): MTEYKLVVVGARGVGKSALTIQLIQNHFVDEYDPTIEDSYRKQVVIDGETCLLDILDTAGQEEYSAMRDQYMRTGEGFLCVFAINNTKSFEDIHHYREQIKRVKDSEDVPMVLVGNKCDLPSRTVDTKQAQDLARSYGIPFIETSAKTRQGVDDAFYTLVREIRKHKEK
smiles,measurement,setting,value
CCc1c(F)ccc2cc(O)cc(-c3ncc4c(N5CC6CC(O)C(C6)C5)nc(OC[C@@]56CCCN5C[C@H](F)C6)nc4c3F)c12 (stereo partly drawn) [Example 82],IC50,KRas G12V [1],≤ 2 nM
same,IC50,pERK in ASPC1 cells,15 nM
same,IC50,KRas G12R [2],≤ 2 nM
same,IC50,pERK in HCT116 cells,106 nM
same,IC50,pERK in PSN1 cells,2320 nM
same,IC50,pERK in MKN1 cells,6 nM
same,IC50,pERK in H358 cells,10 nM
same,IC50,KRas G12D,≤ 2 nM
same,IC50,pERK in H727 cells,16 nM
same,IC50,pERK in A549 cells,15 nM
same,IC50,pERK in H460 cells,22 nM
same,IC50,[3],25 nM
same,IC50,[4],10 nM
same,IC50,[5],216 nM
same,IC50,"[6]; Homo sapiens, NCI-H727, 3 h",65 nM
same,IC50,[7],3 nM
same,IC50,[8],1740 nM
same,IC50,"[9]; Homo sapiens, NCI-H460, 3 h",180 nM
same,IC50,"[10]; Homo sapiens, ASPC1, 3 h",18 nM
"CCc1c(F)ccc2cc(O)cc(-c3ncc4c(N5C[C@H](O)C[C@@H](O)C5)nc(OC[C@@]56CCCN5C[C@H](F)C6)nc4c3F)c12 [Example 296, (3R,5R)-1-(7-(8-ethyl-7-fluoro-3-hydroxynaphthalen-1-yl)-8-fluoro-2-(((2R,7aS)-2-fluorohexahydro-1H-pyrrolizin-7a-yl)methoxy)pyrido[4,3-d]pyrimidin-4-yl)piperidine-3,5-diol]",IC50,KRas G12V [11],≤ 2 nM
same,IC50,pERK in PSN1 cells,≥ 10000 nM
same,IC50,pERK in MKN1 cells,53 nM
same,IC50,KRas G12D,4 nM
same,IC50,KRas G12R [12],≤ 2 nM
same,IC50,[6],2080 nM
same,IC50,[9],619 nM
same,IC50,[10],2200 nM
